Assay results reported in patent US20230233569A1 (Revolution Medicines, Inc., priority 2020, published 2023).

Legend:
Experiment in all cases: Ras-Raf disruption / FRET / MOA assay (BRAF RBD)
Assay type in all cases: biochemical
KRAS G12C = KRAS G12C (Homo sapiens, UniProt P01116+P62937, G12C); details: Ras-Raf disruption, with Cyclophilin A; read-out: KRAS G12C FRET data IC50
Description: (§1) Disruption of […] Ras-binding Domain (BRAF^RBD) Interaction with K-Ras by Compounds of the Invention (also Called a FRET Assay or an MOA Assay)
(§2) Note—The following protocol describes a procedure for monitoring disruption of K-Ras G12C (GMP-PNP) binding to BRAF^RBD by a compound of the invention. This protocol may also be executed substituting other Ras proteins or nucleotides, such as K-Ras G12D and K-Ras G13D.
(§3) The purpose of this biochemical assay was to measure the ability of test compounds to facilitate ternary complex formation between a nucleotide-loaded K-Ras isoform and Cyclophilin A; the resulting ternary complex disrupts binding to a BRAF^RBD construct, inhibiting K-Ras signaling through a RAF effector. Data is reported as IC50 values.
(§4) In assay buffer containing 25 mM HEPES pH 7.3, 0.002% Tween20, 0.1% BSA, 100 mM NaCl and 5 mM MgCl2, tagless Cyclophilin A, His6-K-Ras-GMPPNP, and GST-BRAF^RBD were combined in a 384-well assay plate at final concentrations of 25 μM, 12.5 nM, and 50 nM, respectively. Compound was present in plate wells as a 10-point 3-fold dilution series starting at a final concentration of 30 μM. After incubation at 25° C. for 3 hours, a mixture of anti-His Eu-W1024 and anti-GST allophycocyanin was then added to assay sample wells at final concentrations of 10 nM and 50 nM, respectively, and the reaction incubated for an additional 1.5 hours. […] Compounds that facilitate disruption of a K-Ras:RAF complex were identified as those eliciting a decrease in the TR-FRET ratio relative to DMSO control wells.
as §3, with “is” for “was”, “Ras” for “K-Ras”, “cyclophilin” for “Cyclophilin”, “effector.” for “effector. Data is reported as IC50 values.”
In assay buffer containing 25 mM HEPES pH 7.3, 0.002% Tween20, 0.1% BSA, 100 mM NaCl and 5 mM MgCl2, tagless Cyclophilin A, His6-K-Ras-GMPPNP (or other Ras variant), and GST-BRAF^RBD are combined in a 384-well assay plate at final concentrations of 25 μM, 12.5 nM and 50 nM, respectively. Compound is present in plate wells as a 10-point 3-fold dilution series starting at a final concentration of 30 μM. After incubation at 25° C. for 3 hours, a mixture of Anti-His Eu-W1024 and anti-GST allophycocyanin is then added to assay sample wells at final concentrations of 10 nM and 50 nM, respectively, and the reaction incubated for an additional 1.5 hours. […] Compounds that facilitate disruption of a Ras:RAF complex are identified as those eliciting a decrease in the TR-FRET ratio relative to DMSO control wells.

KRAS G13C = KRAS G13C (Homo sapiens, UniProt P01116+P62937, G13C); details: Ras-Raf disruption, with Cyclophilin A; read-out: KRAS G13C FRET data IC50
KRAS G13C, sequence (P01116 1-169 isoform P01116-2 G13C limits assumed): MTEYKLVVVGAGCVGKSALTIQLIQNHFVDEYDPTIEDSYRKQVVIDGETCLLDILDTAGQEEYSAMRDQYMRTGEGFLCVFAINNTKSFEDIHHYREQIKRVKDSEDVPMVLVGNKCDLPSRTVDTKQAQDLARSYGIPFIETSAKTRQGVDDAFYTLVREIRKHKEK
KRAS G13C, sequence (P62937 whole entry): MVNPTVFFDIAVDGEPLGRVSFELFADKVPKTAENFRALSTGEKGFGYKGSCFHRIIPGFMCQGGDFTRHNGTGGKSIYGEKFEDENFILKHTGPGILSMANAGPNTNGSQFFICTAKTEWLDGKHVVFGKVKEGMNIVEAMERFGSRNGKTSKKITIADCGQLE
Description: as §1, §2, §3, §4

KRAS G12V = KRAS G12V (Homo sapiens, UniProt P01116+P62937, G12V); details: Ras-Raf disruption, with Cyclophilin A; read-out: KRAS G12V FRET data IC50
KRAS G12V, sequence (P01116 1-169 isoform P01116-2 G12V limits assumed): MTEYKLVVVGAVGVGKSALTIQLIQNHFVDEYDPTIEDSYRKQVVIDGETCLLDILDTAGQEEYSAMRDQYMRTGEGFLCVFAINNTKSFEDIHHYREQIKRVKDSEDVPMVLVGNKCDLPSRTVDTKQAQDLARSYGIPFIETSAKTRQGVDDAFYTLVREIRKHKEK
KRAS G12V, sequence (P62937 whole entry): as the sequence (P62937 whole entry) above
Description: as §1, §2, §3, §4

KRAS WT = KRAS WT (Homo sapiens, UniProt P01116+P62937); details: Ras-Raf disruption, with Cyclophilin A; read-out: KRAS WT FRET data IC50
KRAS WT, sequence (P01116 1-169 isoform P01116-2 limits assumed): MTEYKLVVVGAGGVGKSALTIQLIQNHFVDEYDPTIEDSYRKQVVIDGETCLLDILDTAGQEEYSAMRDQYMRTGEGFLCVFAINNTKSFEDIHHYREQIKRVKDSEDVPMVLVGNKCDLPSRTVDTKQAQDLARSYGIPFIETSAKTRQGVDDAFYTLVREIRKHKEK
KRAS WT, sequence (P62937 whole entry): as the sequence (P62937 whole entry) above
Description: as §1, §2, §3, §4

NRAS G12C = NRAS G12C (Homo sapiens, UniProt P01111+P62937, G12C); details: NRAS G12C; read-out: NRAS G12C FRET data IC50
NRAS G12C, sequence (P01111 whole entry G12C): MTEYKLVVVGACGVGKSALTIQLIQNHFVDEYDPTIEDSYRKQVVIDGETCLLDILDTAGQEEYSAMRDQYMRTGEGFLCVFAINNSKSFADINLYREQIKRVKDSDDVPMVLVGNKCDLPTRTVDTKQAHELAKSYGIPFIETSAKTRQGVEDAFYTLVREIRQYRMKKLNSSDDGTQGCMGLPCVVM
NRAS G12C, sequence (P62937 whole entry): as the sequence (P62937 whole entry) above
Description: as §1, §2, §3, §4

KRAS G13D = KRAS G13D (Homo sapiens, UniProt P01116+P62937, G13D); details: Ras-Raf disruption, with Cyclophilin A; read-out: KRAS G13D FRET data IC50
KRAS G13D, sequence (P01116 1-169 isoform P01116-2 G13D limits assumed): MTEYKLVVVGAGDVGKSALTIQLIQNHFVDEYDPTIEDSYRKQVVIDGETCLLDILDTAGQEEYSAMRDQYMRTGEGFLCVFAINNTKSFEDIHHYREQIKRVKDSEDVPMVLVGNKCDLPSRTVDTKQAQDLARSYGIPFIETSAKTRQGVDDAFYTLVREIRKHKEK
KRAS G13D, sequence (P62937 whole entry): as the sequence (P62937 whole entry) above
Description: as §1, §2, §3, §4

KRAS G12S = KRAS G12S (Homo sapiens, UniProt P01116+P62937, G12S); details: Ras-Raf disruption, with Cyclophilin A; read-out: KRAS G12S FRET data IC50
KRAS G12S, sequence (P01116 1-169 isoform P01116-2 G12S limits assumed): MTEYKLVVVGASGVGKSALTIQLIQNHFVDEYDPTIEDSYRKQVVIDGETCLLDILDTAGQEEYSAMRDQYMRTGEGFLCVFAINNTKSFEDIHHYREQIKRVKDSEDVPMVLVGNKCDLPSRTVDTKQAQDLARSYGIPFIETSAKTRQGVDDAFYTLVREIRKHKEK
KRAS G12S, sequence (P62937 whole entry): as the sequence (P62937 whole entry) above
Description: as §1, §2, §3, §4

KRAS G12D = KRAS G12D (Homo sapiens, UniProt P01116+P62937, G12D); details: Ras-Raf disruption, with Cyclophilin A; read-out: KRAS G12D FRET data IC50
KRAS G12D, sequence (P01116 1-169 isoform P01116-2 G12D limits assumed): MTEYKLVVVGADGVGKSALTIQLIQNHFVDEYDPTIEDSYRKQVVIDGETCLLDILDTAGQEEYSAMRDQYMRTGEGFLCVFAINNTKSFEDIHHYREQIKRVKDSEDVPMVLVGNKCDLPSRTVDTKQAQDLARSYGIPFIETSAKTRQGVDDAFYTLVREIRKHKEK
KRAS G12D, sequence (P62937 whole entry): as the sequence (P62937 whole entry) above
Description: as §1, §2, §3, §4

KRAS G12C, sequence (P01116 1-169 isoform P01116-2 G12C limits assumed): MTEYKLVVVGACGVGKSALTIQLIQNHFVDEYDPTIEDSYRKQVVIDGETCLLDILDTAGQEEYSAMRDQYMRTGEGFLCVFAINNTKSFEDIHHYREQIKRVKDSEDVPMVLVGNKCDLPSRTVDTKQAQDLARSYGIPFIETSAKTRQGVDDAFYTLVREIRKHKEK
KRAS G12C, sequence (P62937 whole entry, the tested form may be a part): as the sequence (P62937 whole entry) above

SMILES | IC50 (KRAS G12C) [nM] | IC50 (KRAS G13C) [nM] | IC50 (KRAS G12V) [nM] | IC50 (KRAS WT) [nM] | IC50 (NRAS G12C) [nM] | IC50 (KRAS G13D) [nM] | IC50 (KRAS G12S) [nM] | IC50 (KRAS G12D) [nM]
CCn1c(-c2cccnc2[C@H](C)OC)c2c3cc(ccc31)-c1cc(O)cc(c1)C[C@H](NC(=O)[C@H](C(C)C)N1CC[C@@]3(CCN(C[C@@H]4CN4)C3)C1=O)C(=O)N1CCC[C@H](N1)C(=O)OCC(C)(C)C2 [Example 138] | 10 to 100 | 10 to 100 | 1000 to 10000 | 10 to 100 | < 10 | 10 to 100 | 100 to 1000 | 100 to 1000
CCn1c(-c2cnccc2COC)c2c3cc(ccc31)-c1cccc(c1)C[C@H](NC(=O)[C@H](C(C)C)N(C)C(=O)C1CCC(N=C=Nc3ccc(OC)cc3)C1)C(=O)N1CCC[C@H](N1)C(=O)OCC(C)(C)C2 (stereo partly drawn) [71 A and B] | – | > 10000 | > 10000 | > 10000 | – | > 10000 | > 10000 | > 10000
CCn1c(-c2cccnc2[C@H](C)OC)c2c3cc(ccc31)-c1cc(O)cc(c1)C[C@H](NC(=O)[C@H](C(C)C)N(C)C(=O)c1ncc(NC(=O)[C@@H]3CN3)n1C)C(=O)N1CCC[C@H](N1)C(=O)OCC(C)(C)C2 [Example 83] | 10 to 100 | 10 to 100 | 10 to 100 | 10 to 100 | 10 to 100 | 10 to 100 | 10 to 100 | 100 to 1000
CCn1c(-c2cccnc2[C@H](C)OC)c2c3cc(ccc31)-c1cc(O)cc(c1)C[C@H](NC(=O)[C@H](C(C)C)N(C)C(=O)[C@H]1CCN(C(=O)[C@H]3CN3)C1)C(=O)N1CCC[C@H](N1)C(=O)OCC(C)(C)C2 (single isomer, unassigned) [Example 43A] | < 10 | 10 to 100 | 10 to 100 | 10 to 100 | < 10 | 10 to 100 | 10 to 100 | 10 to 100
CCn1c(-c2cccnc2[C@H](C)OC)c2c3cc(ccc31)-c1cc(O)cc(c1)C[C@H](NC(=O)[C@H](C(C)C)N1CCC3(CCN(C(=O)[C@@H]4CN4)C3)C1=O)C(=O)N1CCC[C@H](N1)C(=O)OCC(C)(C)C2 (stereo partly drawn) [Example 113] | < 10 | 10 to 100 | 10 to 100 | 10 to 100 | < 10 | 10 to 100 | 10 to 100 | 10 to 100
CCCN=C=NCCC(=O)N(C)[C@H](C(=O)N[C@H]1Cc2cccc(c2)-c2ccc3c(c2)c(c(-c2cnccc2COC)n3CC)CC(C)(C)COC(=O)[C@@H]2CCCN(N2)C1=O)C(C)C [22 A and B] | 10 to 100 | 100 to 1000 | 1000 to 10000 | 1000 to 10000 | 10 to 100 | > 10000 | 1000 to 10000 | –
CCn1c(-c2cccnc2[C@H](C)OC)c2c3cc(ccc31)-c1cc(O)cc(c1)C[C@H](NC(=O)[C@H](C(C)C)N(C)C(=O)c1ncc(NC(=O)[C@H]3CN3)n1C)C(=O)N1CCC[C@H](N1)C(=O)OCC(C)(C)C2 [Example 84] | 10 to 100 | < 10 | 100 to 1000 | 100 to 1000 | 10 to 100 | 100 to 1000 | 100 to 1000 | 1000 to 10000
CCn1c(-c2cccnc2[C@H](C)OC)c2c3cc(ccc31)-c1cc(O)cc(c1)C[C@H](NC(=O)[C@H](C(C)C)N(C)C(=O)C1CC3(C1)CN(C(=O)[C@H]1CN1)C3)C(=O)N1CCC[C@H](N1)C(=O)OCC(C)(C)C2 [Example 181] | 10 to 100 | 10 to 100 | 100 to 1000 | 100 to 1000 | 10 to 100 | 100 to 1000 | 100 to 1000 | –
CCn1c(-c2cnccc2COC)c2c3cc(ccc31)-c1cccc(c1)C[C@H](NC(=O)[C@H](C(C)C)N(C)C(=O)CCN=C=NCCCN1CCOCC1)C(=O)N1CCC[C@H](N1)C(=O)OCC(C)(C)C2 [17 A and B] | 10 to 100 | 1000 to 10000 | > 10000 | > 10000 | – | – | > 10000 | 1000 to 10000
CCn1c(-c2cnccc2COC)c2c3cc(ccc31)-c1cccc(c1)C[C@H](NC(=O)[C@H](C(C)C)N(C)C(=O)CCN=C=NCc1ccccc1C)C(=O)N1CCC[C@H](N1)C(=O)OCC(C)(C)C2 [82 A and B] | – | > 10000 | > 10000 | > 10000 | – | > 10000 | > 10000 | –
CCn1c(-c2cnccc2COC)c2c3cc(ccc31)-c1cccc(c1)C[C@H](NC(=O)[C@H](C(C)C)N(C)C(=O)CC1(N=C=Nc3ccc(OC)cc3)CC1)C(=O)N1CCC[C@H](N1)C(=O)OCC(C)(C)C2 [65 A and B] | – | – | > 10000 | > 10000 | > 10000 | > 10000 | > 10000 | > 10000
CCn1c(-c2cnccc2COC)c2c3cc(ccc31)-c1cccc(c1)C[C@H](NC(=O)[C@H](C(C)C)N(C)C(=O)CCN=C=NC(C)(C)C)C(=O)N1CCC[C@H](N1)C(=O)OCC(C)(C)C2 [79 A and B] | – | – | – | – | – | > 10000 | > 10000 | > 10000
CCn1c(-c2cnccc2COC)c2c3cc(ccc31)-c1cccc(c1)C[C@H](NC(=O)[C@H](C(C)C)N(C)C(=O)CCN=C=NCc1ccc(OC)cc1OC)C(=O)N1CCC[C@H](N1)C(=O)OCC(C)(C)C2 [61 A and B] | – | > 10000 | > 10000 | > 10000 | – | > 10000 | > 10000 | > 10000
CCn1c(-c2cccnc2[C@H](C)OC)c2c3cc(ccc31)-c1cc(O)cc(c1)C[C@H](NC(=O)[C@H](C(C)C)N(C)C(=O)N1CCN(C(=O)[C@@H]3CN3)C(=O)C1)C(=O)N1CCC[C@H](N1)C(=O)OCC(C)(C)C2 [Example 197] | 10 to 100 | – | 10 to 100 | 10 to 100 | 10 to 100 | – | 10 to 100 | –
CCn1c(-c2cnccc2COC)c2c3cc(ccc31)-c1cc(O)cc(c1)C[C@H](NC(=O)[C@H](C(C)C)N(C)C(=O)c1ccc(NC(=O)[C@H]3CN3)cn1)C(=O)N1CCC[C@H](N1)C(=O)OCC(C)(C)C2 [47 A and B] | – | 10 to 100 | – | – | – | – | – | 1000 to 10000
CCn1c(-c2cccnc2[C@H](C)OC)c2c3cc(ccc31)-c1cc(O)cc(c1)C[C@H](NC(=O)[C@H](C(C)C)N(C)C(=O)[C@H]1CCN(C(=O)[C@H]3CN3)C1)C(=O)N1CCC[C@H](N1)C(=O)OCC(C)(C)C2 (single isomer, unassigned) [Example 43B] | 10 to 100 | 1000 to 10000 | 1000 to 10000 | – | 10 to 100 | 1000 to 10000 | 1000 to 10000 | 1000 to 10000
CCn1c(-c2cnccc2COC)c2c3cc(ccc31)-c1cccc(c1)C[C@H](NC(=O)[C@H](C(C)C)N(C)C(=O)CCN=C=NC1(COC)CC1)C(=O)N1CCC[C@H](N1)C(=O)OCC(C)(C)C2 [72 A and B] | – | – | – | > 10000 | 100 to 1000 | – | > 10000 | –
CCn1c(-c2cnccc2COC)c2c3cc(ccc31)-c1cccc(c1)C[C@H](NC(=O)[C@H](C(C)C)N(C)C(=O)CCN=C=Nc1ccccc1OC)C(=O)N1CCC[C@H](N1)C(=O)OCC(C)(C)C2 [20 A and B] | – | – | > 10000 | > 10000 | – | > 10000 | > 10000 | > 10000
